Values after ≈ are worked out from the molar mass of the structure shown.
Legend:
[1] = target: T1, S. aureus ATCC 29213 FabI (Staphylococcus aureus, UniProt Q6GI75); assay: Staphylococcus aureus FabI enzyme inhibition assay; assay type: biochemical; conditions: read-out: FabI (300.235) IC50 (converted)
T1 sequence (Q6GI75 1-256): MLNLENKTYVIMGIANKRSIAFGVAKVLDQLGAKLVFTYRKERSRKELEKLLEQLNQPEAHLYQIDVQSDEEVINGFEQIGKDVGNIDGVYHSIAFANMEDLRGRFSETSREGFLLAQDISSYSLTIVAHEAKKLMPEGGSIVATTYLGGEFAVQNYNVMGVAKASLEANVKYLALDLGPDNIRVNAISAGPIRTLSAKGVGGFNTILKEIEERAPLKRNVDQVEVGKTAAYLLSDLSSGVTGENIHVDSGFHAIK
Method: Y.1 FabI Enzyme Inhibition: Staphylococcus aureus FabI Enzyme Inhibition Assay
FabI enzyme inhibition assays were carried out in half-area, 384-well microtitre plates. Compounds were evaluated in 40-μl assay mixtures containing 100 mM NaADA, pH 6.5 (ADA=N-[2-acetamido]-2iminodiacetic acid), 250 μM crotonoyl-CoA, 625 μM NADH and 50 μg/ml S. aureus ATCC 29213 FabI. Inhibitors were typically varied over the range of 50 to 0.39 μM. The reaction mixtures were incubated for 30 minutes at room temperature and the reaction was stopped by adding 200 mM Tris buffer (pH 9.0) to create a pH-shift. The consumption of NADH was monitored by measuring the change in absorbance at […]. By comparing sample readings to those of negative (absence of compound) and positive (absence of enzyme) controls, the percent inhibition of enzymatic activity of the compounds was determined A best-fit curve is fitted by a minimum of squares method. From this an IC50-value (expressed in μg/ml), resulting in 50% inhibition of enzymatic activity, was obtained.

[2] = tested on: Staphylococcus aureus ATCC 29213; assay: Antibacterial susceptibility testing, IC90 determination (STA); assay type: cell-based; conditions: resazurin; for IC90: Staphylococcus aureus, ATCC29213, Staphylococcus aureus ATCC 29213, broth microdilution, read-out: STA (361.159) IC90
Method: (§1) The following bacteria were used: Staphylococcus aureus ATCC 29213, methicillin-resistant Staphylococcus aureus (MRSA) ATCC 700788 and Escherichia coli ATCC 35218. The bacteria used in this study were grown overnight in flasks containing 100 ml Mueller-Hinton broth (Difco cat. nr. 0757-17) in sterile de-ionized water, with shaking, at 37° C. Stocks were store at −70° C. until use.
(§2) Bacteria were incubated on a tryptic soy agar plate containing 5% sheep blood (Becton Dickinson cat. nr. 254053) for 18-24 hours at 35° C. in aerobic conditions (first passage). For the second passage, fresh Mueller-Hinton broth is inoculated with 5-10 colonies and grown overnight at 35° C. until turbidity (reaching log-phase) in aerobic conditions is reached. The bacterial suspension is then adjusted to 0.5 McFarland density and further diluted 1:100 in Mueller Hinton broth medium. This is used as inoculum.
The result(s) are depicted the table below (for STA ATCC 29213).
(§3) MIC assays were performed by the broth microdilution method in a 96-well format (flat-bottom microtitre plates) with a final volume of 0.1 ml Mueller Hinton broth containing two-fold serial dilutions of compounds and inoculated with 5×10^5 CFU/ml of bacteria (standard inoculum size according to CLSI guidelines). Inhibitors are typically varied over the range of 63 to 0.49 μM. The final DMSO concentration in the assay was 1.25% (maximum tolerable DMSO concentration=6%). In the assays where the effect of human serum on the activity of the compounds against S. aureus was tested, human serum was added at a final concentration of 10%. The plates were incubated at 35° C. for 16-20 hours. At the end of incubation the bacterial growth was quantified fluorometrically. For this, resazurin was added to all wells and the plates were re-incubated. The incubation time is dependent on the type of bacteria. A change in color from blue to pink indicated the growth of bacteria. The fluorescence was read in computer-controlled fluorometer (Fluoroskan Ascent FL, Labsystems) at an excitation wavelength 540 nm and an emission wavelength of 590 nm. The % growth inhibition achieved by the compounds was calculated according to standard methods. The IC90 (expressed in μg/ml) was defined as the 90% inhibitory concentration for bacterial growth. A panel of reference compounds were simultaneously tested for QC approval.

S. aureus = assay: Antibacterial susceptibility testing, IC90 determination with 10% human serum (STA + 10% HS); assay type: cell-based, Staphylococcus aureus; conditions: Staphylococcus aureus, human serum at final concentration of 10%, read-out: STA + 10% HS (361.169) IC90
Method: as §1, §2, §3
The results are depicted in the table(s) below (STA+10% HS).

[3] = Cytotoxicity MTT assay (HELAM); assay type: cell-based, Human; conditions: human, HelaM cells, read-out: HELAM (222.125) CC50
Method: Cytotoxicity of the compounds was evaluated using the MTT assay. Human HelaM cells grown in 96-well plates were exposed to serial dilutions of the tested compounds (final volume of 0.2 ml) and incubated for 72 hours at 37° C. and 5% CO2. Inhibitors are typically varied over the range of 25 to 0.8 μM. The final DMSO concentration in the assay is 0.5%. MTT (3-(4,5-Dimethylthiazol-2-yl)-2,5-diphenyltetrazolium bromide, a tetrazole) was added and reduced to purple formazan only in living cells. Solubilization of the formazan crystals was achieved by adding 100 μl 2-propanol. Cell viability was determined by measuring the absorbance of the reduced formazan, giving a purple color, at 540 nm and 690 nm. The absorbance measured at 690 nm was automatically subtracted from the absorbance at 540 nm, to eliminate the effects of non-specific absorption. The percent cytotoxicity achieved by the compounds was calculated according to standard methods. Cytotoxicity is reported as CC50, the concentration that causes a 50% reduction in cell viability.
The results are depicted in the table(s) below (HELAM).

Compound	IC50 [1]	IC90 [2]	IC90 (S. aureus)	melting point	STA (361.159) IC90 ([2]; Staphylococcus aureus ATCC 29213, broth microdilution)	CC50 at 72 h [3]
O=C1CNCc2cc(/C=C/C(=O)N3C[C@H]4CC(c5ccccc5)=C[C@H]4C3)cnc2N1 (single isomer, unassigned) [compound 46]	0.924 µM	0.23 µg/mL (≈ 0.574 µM)	0.27 µg/mL			> 4.05 µg/mL
O=C1Nc2ncc(/C=C/C(=O)N3CC4C=C(c5ccccc5)CC4C3)cc2Cn2cncc21 (stereo not shown) [Compound K11]				220 to 270 °C		
COc1cncc(C(=O)Nc2ccc(/C=C/C(=O)N3CC4C=C(c5ccccc5)CC4C3)cn2)c1 (stereo not shown) [Cpd. No. 7]	2.4 µM	< 0.22 µg/mL	0.42 µg/mL			> 11.7 µg/mL
Cc1cc(N)ncc1/C=C/C(=O)N1CC2C=C(c3ccccc3)CC2C1 (stereo not shown) [compound 20]	8.31 µM	> 21.8 µg/mL	> 21.8 µg/mL			4.55 µg/mL (≈ 13.2 µM)
Cc1nc(N)ccc1/C=C/C(=O)N1CC2C=C(c3ccccc3)CC2C1 (stereo not shown) [compound 21]	6.77 µM	> 21.8 µg/mL	> 21.8 µg/mL			3.11 µg/mL (≈ 9 µM)
N#Cc1cc(N)ncc1/C=C/C(=O)N1CC2C=C(c3ccccc3)CC2C1 (stereo not shown) [compound 22]	~33.9 µM	> 22.5 µg/mL	> 22.5 µg/mL			> 8.95 µg/mL
COc1nc(NC(C)=O)ccc1/C=C/C(=O)N1CC2C=C(c3ccccc3)CC2C1 (stereo not shown) [compound 23]	15.5 µM	> 25.5 µg/mL	> 25.5 µg/mL			> 10.1 µg/mL
O=C(Nc1ccc(/C=C/C(=O)N2CC3C=C(c4ccccc4)CC3C2)cn1)c1ccccn1 (stereo not shown) [compound 24]	3.46 µM	> 27.5 µg/mL	> 27.5 µg/mL			7.76 µg/mL (≈ 17.8 µM)
Cc1nc(NC(=O)c2cccnc2)ccc1/C=C/C(=O)N1CC2C=C(c3ccccc3)CC2C1 (stereo not shown) [compound 25]	14.4 µM	> 28.4 µg/mL	> 28.4 µg/mL			> 11.3 µg/mL
Cc1cc(NC(=O)c2cccnc2)ncc1/C=C/C(=O)N1CC2C=C(c3ccccc3)CC2C1 (stereo not shown) [compound 26]	10.2 µM	> 28.4 µg/mL	> 28.4 µg/mL			> 11.3 µg/mL
N#Cc1cc(NC(=O)c2cccnc2)ncc1/C=C/C(=O)N1CC2C=C(c3ccccc3)CC2C1 (stereo not shown) [compound 27]	20.9 µM	> 29.1 µg/mL	> 29.1 µg/mL			> 11.6 µg/mL

Now from value to compound, other results behind:

IC50 [1]	IC90 [2]	IC90 (S. aureus)	melting point	STA (361.159) IC90 ([2]; Staphylococcus aureus ATCC 29213, broth microdilution)	Compound	CC50 at 72 h [3]
14.8 µM	> 31.3 µg/mL	> 31.3 µg/mL			COc1ccc(C(=O)Nc2ccc(/C=C/C(=O)N3CC4C=C(c5ccccc5)CC4C3)cn2)c(OC)n1 (stereo not shown) [compound 28]	2.99 µg/mL (≈ 6.02 µM)
9.32 µM	> 33 µg/mL	> 33 µg/mL			O=C(Nc1ccc(/C=C/C(=O)N2CC3C=C(c4ccccc4)CC3C2)cn1)c1cc(F)c(Cl)nc1Cl (stereo not shown) [compound 29]	2.34 µg/mL (≈ 4.47 µM)
2.95 µM	> 33.8 µg/mL	> 33.8 µg/mL			O=C(Nc1ncc(/C=C/C(=O)N2CC3C=C(c4ccccc4)CC3C2)cc1CN1CCOCC1)c1cccnc1 (stereo not shown) [compound 34]	12.6 µg/mL (≈ 23.4 µM)
0.959 µM	< 0.19 µg/mL	< 0.19 µg/mL			O=C1CNCc2cc(/C=C/C(=O)N3CC4C=C(c5ccsc5)CC4C3)cnc2N1 (stereo not shown) [compound 40]	> 10.2 µg/mL
	< 0.2 µg/mL	< 0.2 µg/mL			CC1(C)Oc2cc(/C=C/C(=O)N3CC4C=C(c5ccccc5)CC4C3)cnc2NC1=O (stereo not shown) [compound 42]	
				<0.20 µg/mL	CC1(C)Oc2cc(/C=C/C(=O)N3CC4C=C(c5ccccc5)CC4C3)cnc2NC1=O (stereo not shown) [compound 43]	
	< 0.2 µg/mL	< 0.2 µg/mL			CC1(C)Oc2cc(/C=C/C(=O)N3CC4C=C(c5nccs5)CC4C3)cnc2NC1=O (stereo not shown) [compound 44]	
	< 0.2 µg/mL	< 0.2 µg/mL			Cn1nccc1C1=CC2CN(C(=O)/C=C/c3cnc4c(c3)OC(C)(C)C(=O)N4)CC2C1 (stereo not shown) [compound 45]	
> 50.1 µM	> 24.1 µg/mL	> 24.1 µg/mL			C=CCN1C[C@@H]2CN(C(=O)/C=C/c3cnc4c(c3)CN(C)CC(=O)N4)C[C@@H]2C1 [compound 61]	> 9.58 µg/mL
7.41 µM	> 26.4 µg/mL	> 26.4 µg/mL			CN1CC(=O)Nc2ncc(/C=C/C(=O)N3C[C@@H]4CN(c5cccnc5)C[C@@H]4C3)cc2C1 [compound 62]	> 10.5 µg/mL
1.1 µM	< 0.21 µg/mL	< 0.21 µg/mL			O=C1Nc2ncc(/C=C/C(=O)N3CC4C=C(c5ccccc5)CC4C3)cc2Cn2cncc21 (stereo not shown) [compound 71]	6.78 µg/mL (≈ 15.5 µM)
1.34 µM	0.92 µg/mL (≈ 1.85 µM)	0.87 µg/mL			CC(=O)N1CCN2Cc3cc(/C=C/C(=O)N4CC5C=C(c6ccncc6)CC5C4)cnc3NC(=O)C2C1 (stereo not shown) [compound 84]	> 12.5 µg/mL
1.83 µM	3.47 µg/mL (≈ 7.93 µM)	3.81 µg/mL			O=C1Nc2ncc(/C=C/C(=O)N3CC4C=C(c5ccccc5)CC4C3)cc2Cn2nccc21 (stereo not shown) [compound 86]	
			> 250 °C		O=C1Nc2ncc(/C=C/C(=O)N3C[C@@H]4CN(c5ccccc5)C[C@@H]4C3)cc2CN2CCOCC12 (stereo partly shown) [compound 87]	
			242 to 267 °C		CCOC(=O)N1CCN2Cc3cc(/C=C/C(=O)N4CC5C=C(c6ccccc6)CC5C4)cnc3NC(=O)C2C1 (stereo not shown) [compound 88]	

Reference: US9315522B2, “Antibacterial compounds” (JANSSEN SCIENCES IRELAND UC, priority 2012, dated 2016)
